# Assay results taken from patent publication US6525001B1, “Substituted pyrimidine and pyridine herbicides” (Mid-American Commercialization Corporation, priority 1997, dated 2003).
# Experiments:
# Assay type in all cases: in vivo
# [1] = test system: lambsquarters (Chenopodium album); experiment: Test C; parameters: key: 0 was no effect; 100 was complete control; settings: PREEMERGENCE
# [2] = test system: purple nutsedge (Cyperus rotundus); experiment: Test C; parameters: key: 0 was no effect; 100 was complete control; settings: PREEMERGENCE
# [3] = test system: blackgrass (Alopecurus myosuroides); experiment: Test B pre-/postemergence; parameters: key: 0 is no effect; 10 is complete control
# Summary of the method: (§1)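 Scored visually 0 (none) to 10 (complete control) against untreated plants after twelve to sixteen greenhouse days. Test chemicals, formulated in surfactant-containing non-phytotoxic solvent, applied to soil after planting and, separately, onto 1- to 4-leaf (2–18 cm) plants.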
# [4] = test system: purple nutsedge (Cyperus rotundus); experiment: Test B pre-/postemergence; parameters: key: 0 is no effect; 10 is complete control
# Summary of the method: as §1
# soybean (Glycine max) = experiment: Test B pre-/postemergence; parameters: key: 0 is no effect; 10 is complete control
# Summary of the method: as §1
# [5] = test system: crabgrass (Digitaria sanguinalis); experiment: Test B pre-/postemergence; parameters: key: 0 is no effect; 10 is complete control
# Summary of the method: as §1
# wild oat (Avena fatua) = experiment: Test B pre-/postemergence; parameters: key: 0 is no effect; 10 is complete control
# Summary of the method: as §1
# [6] = test system: common groundsel (Senecio vulgaris); experiment: Test E pre-/postemergence/post directed; parameters: key: 0 is no effect; 100 is complete control; settings: PREEMERGENCE
# Excerpt: (§2) Seeds, tubers, or plant parts of alexandergrass (Brachiaria plantaginea), annual bluegrass (Poa annua), arrowleaf sida (Sida rhombifolia), barnyardgrass (Echinochloa crus-galli), bermudagrass (Cynodon dactylon), citrus (Citrus sinensis), common chickweed (Stellaria media), common purslane (Portulaca oleracea), common ragweed (Ambrosia elatior), common groundsel (Senecio vulgaris), dallisgrass (Paspalum dilatatum), goosegrass (Eleusine indica), green foxtail (Setaria viridis), guineagrass (Panicum maximum), itchgrass (Rottboellia exaltata), johnson grass (Sorghum halepense), kochia (Kochia scoparia), large crabgrass (Digitaria sanguinalis), leafy spurge (Euphorbia esula), pitted morningglory (Ipomoea lacunosa), purple nutsedge (Cyperus rotundus), quackgrass (Agropyron repens), Russian thistle (Salsola kali), sandbur (Cenchrus echinatus), sourgrass (Trichachne insularis), Spanishneedles (Bidens bipinnata), sugarcane (Saccharum officinarum), surinam grass (Brachiaria decumbens) and tall mallow (Malva sylvestris) were planted into greenhouse pots of flats containing greenhouse planting medium. Plant species were grown grown in separate pots or individual compartments. Preemergence applications were made within one day of planting the seed or plant part. Postemergence applications were applied when the plants were in the two to four leaf stage (three to twenty cm).
# (§3) Test chemicals were formulated in a non-phytotoxic solvent mixture which included a surfactant and applied preemergence to the soil surface, postemergence to the plants or as a post directed spray to plants and soil at the base of the target species. Untreated control plants and treated plants were placed in the greenhouse and visually evaluated for injury 13 to 21 days after herbicide application. Plant response ratings, summarized in Table E, are based on a 0 to 100 scale where 0 is no injury and 100 is complete control. A dash (−) response means no test result.
# [7] = test system: dallisgrass (Paspalum dilatatum); experiment: Test E pre-/postemergence/post directed; parameters: key: 0 is no effect; 100 is complete control
# Excerpt: as §2, §3
# [8] = test system: sourgrass (Trichachne insularis); experiment: Test E pre-/postemergence/post directed; parameters: key: 0 is no effect; 100 is complete control
# Excerpt: as §2, §3
# [9] = test system: guineagrass (Panicum maximum); experiment: Test E pre-/postemergence/post directed; parameters: key: 0 is no effect; 100 is complete control
# Excerpt: as §2, §3
# [10] = test system: tall mallow (Malva sylvestris); experiment: Test E pre-/postemergence/post directed; parameters: key: 0 is no effect; 100 is complete control; settings: PREEMERGENCE
# Excerpt: as §2, §3
smiles,measurement,setting,value
Cc1cnc(-c2ccc(C(F)(F)F)cc2)nc1Cc1cccc(OC(F)(F)F)c1 [Compound 15],"Plant response rating, Lambsquarters",[1]; Rate 35 g/ha,0
same,"Plant response rating, Lambsquarters",[1]; Rate 70 g/ha,20
same,"Plant response rating, Lambsquarters",[1]; Rate 140 g/ha,60
same,"Plant response rating, Purple nutsedge",[2]; Rate 35 g/ha,0
same,"Plant response rating, Purple nutsedge",[2]; Rate 70 g/ha,0
same,"Plant response rating, Purple nutsedge",[2]; Rate 140 g/ha,0
same,"Plant response rating, Blackgrass","[3]; Rate 62 g/ha, Postemergence",6
same,Blackgrass plant response rating,"[3]; Rate 62 g/ha, Preemergence",9
same,"Plant response rating, Blackgrass","[3]; Rate 125 g/ha, Postemergence",9
same,Blackgrass plant response rating,"[3]; Rate 125 g/ha, Preemergence",10
same,"Plant response rating, Blackgrass","[3]; Rate 250 g/ha, Postemergence",9
same,"Plant response rating, Blackgrass","[3]; Rate 250 g/ha, Preemergence",10
same,"Plant response rating, Nutsedge","[4]; Rate 62 g/ha, Postemergence",0
same,Nutsedge plant response rating,"[4]; Rate 62 g/ha, Preemergence",0
same,"Plant response rating, Nutsedge","[4]; Rate 125 g/ha, Postemergence",2
same,Nutsedge plant response rating,"[4]; Rate 125 g/ha, Preemergence",0
same,"Plant response rating, Nutsedge","[4]; Rate 250 g/ha, Postemergence",2
same,"Plant response rating, Nutsedge","[4]; Rate 250 g/ha, Preemergence",2
same,"Plant response rating, Soybean","soybean (Glycine max); Rate 62 g/ha, Postemergence",9
same,Soybean plant response rating,"soybean (Glycine max); Rate 62 g/ha, Preemergence",0
same,"Plant response rating, Soybean","soybean (Glycine max); Rate 125 g/ha, Postemergence",9
same,Soybean plant response rating,"soybean (Glycine max); Rate 125 g/ha, Preemergence",1
same,"Plant response rating, Soybean","soybean (Glycine max); Rate 250 g/ha, Postemergence",9
same,"Plant response rating, Soybean","soybean (Glycine max); Rate 250 g/ha, Preemergence",1
same,"Plant response rating, Crabgrass","[5]; Rate 62 g/ha, Postemergence",9
same,Crabgrass plant response rating,"[5]; Rate 62 g/ha, Preemergence",9
same,"Plant response rating, Crabgrass","[5]; Rate 125 g/ha, Postemergence",9
same,Crabgrass plant response rating,"[5]; Rate 125 g/ha, Preemergence",10
same,"Plant response rating, Crabgrass","[5]; Rate 250 g/ha, Postemergence",9
same,"Plant response rating, Crabgrass","[5]; Rate 250 g/ha, Preemergence",10
same,"Plant response rating, Wild oats","wild oat (Avena fatua); Rate 62 g/ha, Postemergence",6
same,Wild oats plant response rating,"wild oat (Avena fatua); Rate 62 g/ha, Preemergence",8
same,"Plant response rating, Wild oats","wild oat (Avena fatua); Rate 125 g/ha, Postemergence",7
same,Wild oats plant response rating,"wild oat (Avena fatua); Rate 125 g/ha, Preemergence",9
same,"Plant response rating, Wild oats","wild oat (Avena fatua); Rate 250 g/ha, Postemergence",9
same,"Plant response rating, Wild oats","wild oat (Avena fatua); Rate 250 g/ha, Preemergence",9
same,"Plant response rating, Com. groundsel",[6]; Rate 32 g/ha,100
same,"Plant response rating, Com. groundsel",[6]; Rate 125 g/ha,100
same,"Plant response rating, Com. groundsel",[6]; Rate 250 g/ha,100
same,"Plant response rating, Dallisgrass","[7]; POSTEMERGENCE, Rate 125 g/ha",5
same,"Plant response rating, Dallisgrass","[7]; POSTEMERGENCE, Rate 250 g/ha",50
same,"Plant response rating, Dallisgrass","[7]; PREEMERGENCE, Rate 32 g/ha",95
same,"Plant response rating, Dallisgrass","[7]; PREEMERGENCE, Rate 64 g/ha",100
same,"Plant response rating, Dallisgrass","[7]; PREEMERGENCE, Rate 125 g/ha",100
same,"Plant response rating, Dallisgrass","[7]; PREEMERGENCE, Rate 250 g/ha",100
same,"Plant response rating, Sourgrass","[8]; POSTEMERGENCE, Rate 125 g/ha",20
same,"Plant response rating, Sourgrass","[8]; POSTEMERGENCE, Rate 250 g/ha",25
same,"Plant response rating, Sourgrass","[8]; PREEMERGENCE, Rate 32 g/ha",100
same,"Plant response rating, Sourgrass","[8]; PREEMERGENCE, Rate 64 g/ha",100
same,"Plant response rating, Sourgrass","[8]; PREEMERGENCE, Rate 125 g/ha",100
same,"Plant response rating, Sourgrass","[8]; PREEMERGENCE, Rate 250 g/ha",100
same,"Plant response rating, Guineagrass","[9]; POSTEMERGENCE, Rate 125 g/ha",20
same,"Plant response rating, Guineagrass","[9]; POSTEMERGENCE, Rate 250 g/ha",40
same,"Plant response rating, Guineagrass","[9]; PREEMERGENCE, Rate 32 g/ha",90
same,"Plant response rating, Guineagrass","[9]; PREEMERGENCE, Rate 64 g/ha",100
same,"Plant response rating, Guineagrass","[9]; PREEMERGENCE, Rate 125 g/ha",100
same,"Plant response rating, Guineagrass","[9]; PREEMERGENCE, Rate 250 g/ha",100
same,"Plant response rating, Tall Mallow",[10]; Rate 32 g/ha,98
same,"Plant response rating, Tall Mallow",[10]; Rate 64 g/ha,100
same,"Plant response rating, Tall Mallow",[10]; Rate 125 g/ha,100
same,"Plant response rating, Tall Mallow",[10]; Rate 250 g/ha,98
